Source: the NIST ThermoML archive (doi:10.1021/je301344y)
± gives the expanded uncertainty stated by the source.

Settings: Fluid (supercritical or subcritical phases), Pulse-echo method

C=CC [propene]
Settings	speed of sound [m/s]
320 K, 5106.4 kPa	632.55 ± 2.8
320 K, 6107.1 kPa	653.68 ± 2.7
320 K, 7107.8 kPa	673.35 ± 2.6
320 K, 8108.4 kPa	691.81 ± 2.5
320 K, 9108.4 kPa	709.24 ± 2.5
320 K, 10109 kPa	725.77 ± 1.3
320 K, 12611 kPa	763.9 ± 1.2
320 K, 15112 kPa	798.37 ± 1.2
320 K, 17614 kPa	829.99 ± 1.2
320 K, 20116 kPa	859.32 ± 1.1
320 K, 25119 kPa	912.52 ± 1.1
320 K, 30123 kPa	960.18 ± 1.1
320 K, 35126 kPa	1003.6 ± 1
320 K, 40130 kPa	1043.6 ± 1
320 K, 45133 kPa	1080.8 ± 1
320 K, 50136 kPa	1115.7 ± 0.98
320 K, 60143 kPa	1179.8 ± 1
320 K, 70150 kPa	1237.9 ± 0.99
320 K, 80157 kPa	1291.2 ± 0.99
320 K, 90164 kPa	1340.7 ± 0.99
340.01 K, 4105 kPa	453.16 ± 3.3
340.01 K, 5105.7 kPa	489.49 ± 3.3
340.01 K, 6106.3 kPa	520.38 ± 3.1
340.01 K, 7107 kPa	547.59 ± 2.9
340.01 K, 8107.7 kPa	572.12 ± 2.7
340.01 K, 9108.2 kPa	594.57 ± 2.6
340.01 K, 10109 kPa	615.36 ± 1.3
340.01 K, 12611 kPa	661.83 ± 1.3
340.01 K, 15113 kPa	702.48 ± 1.2
340.01 K, 17615 kPa	738.94 ± 1.2
340.01 K, 20117 kPa	772.18 ± 1.1
340.01 K, 25119 kPa	831.39 ± 1.1
340.01 K, 30122 kPa	883.53 ± 1
340.01 K, 35126 kPa	930.45 ± 1
340.01 K, 40129 kPa	973.32 ± 1
340.01 K, 45133 kPa	1012.9 ± 0.99
340.01 K, 50136 kPa	1049.9 ± 0.96
340.01 K, 60143 kPa	1117.3 ± 0.97
340.01 K, 70150 kPa	1178 ± 0.97
340.02 K, 80157 kPa	1233.5 ± 0.96
340.02 K, 90164 kPa	1284.8 ± 0.97
340.02 K, 100171 kPa	1332.5 ± 0.99
360 K, 5105 kPa	311.26 ± 3.7
360 K, 6105.7 kPa	370.15 ± 3.9
360 K, 7106.5 kPa	413.28 ± 3.3
360 K, 8107.1 kPa	448.54 ± 3
360 K, 9107.8 kPa	478.92 ± 2.8
360 K, 10109 kPa	505.89 ± 1.3
360 K, 12610 kPa	563.32 ± 1.3
360 K, 15112 kPa	611.37 ± 1.2
360 K, 17614 kPa	653.26 ± 1.1
360 K, 20116 kPa	690.72 ± 1.1
360 K, 25119 kPa	756.2 ± 1.1
360 K, 30122 kPa	812.8 ± 1
360 K, 35127 kPa	863.13 ± 0.99
360 K, 40130 kPa	908.71 ± 0.98
360 K, 45134 kPa	950.58 ± 0.96
360 K, 50137 kPa	989.41 ± 0.93
360 K, 60144 kPa	1059.9 ± 0.95
360 K, 70151 kPa	1123 ± 0.94
360 K, 80158 kPa	1180.4 ± 0.94
360 K, 90165 kPa	1233.3 ± 0.94
360 K, 100172 kPa	1282.4 ± 0.97
380 K, 7106.1 kPa	268.33 ± 3.3
380 K, 7357.4 kPa	283.48 ± 3.3
380 K, 7606.5 kPa	297.29 ± 3.2
380 K, 7858.2 kPa	310.32 ± 3.1
380 K, 8106.9 kPa	322.34 ± 3.2
380 K, 9107.6 kPa	364.56 ± 3.1
380 K, 10108 kPa	399.84 ± 1.2
380 K, 12610 kPa	470.55 ± 1.3
380 K, 15112 kPa	526.72 ± 1.2
380 K, 17613 kPa	574.26 ± 1.1
380 K, 20116 kPa	615.93 ± 1
380 K, 25119 kPa	687.43 ± 1
380 K, 30123 kPa	748.22 ± 0.99
380 K, 35126 kPa	801.68 ± 0.96
380 K, 40130 kPa	849.74 ± 0.95
380 K, 45134 kPa	893.62 ± 0.94
380 K, 50137 kPa	934.15 ± 0.9
380 K, 60144 kPa	1007.4 ± 0.92
380 K, 70152 kPa	1072.6 ± 0.92
380 K, 80159 kPa	1131.7 ± 0.92
380 K, 90166 kPa	1186 ± 0.92
380 K, 100173 kPa	1236.3 ± 0.95
400 K, 10108 kPa	309.3 ± 1.1
400 K, 11109 kPa	343.84 ± 1.2
400 K, 12110 kPa	374.75 ± 1.2
400 K, 13110 kPa	402.68 ± 1.1
400 K, 14111 kPa	428.21 ± 1.2
400 K, 15111 kPa	451.76 ± 1.1
400 K, 16111 kPa	473.63 ± 0.99
400 K, 17110 kPa	494.15 ± 1.1
400 K, 18112 kPa	513.48 ± 1
400 K, 19112 kPa	531.79 ± 1.1
400 K, 20113 kPa	549.2 ± 0.97
400 K, 22615 kPa	589.41 ± 1
400 K, 25117 kPa	625.81 ± 0.93
400 K, 30121 kPa	690.16 ± 0.95
400 K, 35124 kPa	746.29 ± 0.93
400 K, 40128 kPa	796.45 ± 0.92
400 K, 45132 kPa	842.05 ± 0.91
400 K, 50135 kPa	884.02 ± 0.87
400 K, 60142 kPa	959.55 ± 0.89
400.01 K, 70148 kPa	1026.5 ± 0.89
400.01 K, 80156 kPa	1087 ± 0.89
400.01 K, 90163 kPa	1142.6 ± 0.9
400.01 K, 100170 kPa	1194 ± 0.92
420 K, 12107 kPa	315 ± 0.91
420 K, 13108 kPa	341.84 ± 0.96
420 K, 14109 kPa	367.29 ± 0.97
420 K, 15110 kPa	391.25 ± 0.98
420 K, 16110 kPa	413.79 ± 0.98
420 K, 17113 kPa	435.07 ± 0.97
420 K, 18114 kPa	455.17 ± 0.97
420 K, 19115 kPa	474.24 ± 0.96
420 K, 20116 kPa	492.39 ± 0.93
420 K, 22618 kPa	534.32 ± 0.94
420 K, 25120 kPa	572.24 ± 0.9
420 K, 30123 kPa	639.09 ± 0.91
420 K, 35127 kPa	697.19 ± 0.9
420 K, 40130 kPa	748.95 ± 0.88
420 K, 45134 kPa	795.89 ± 0.88
420 K, 50138 kPa	838.99 ± 0.85
420 K, 60145 kPa	916.37 ± 0.87
420 K, 70152 kPa	984.82 ± 0.87
420 K, 80159 kPa	1046.6 ± 0.89
